Tests used:
Type in all cases: in vivo
[1] = test system: Erysiphe graminis f.sp. hordei; experiment: Erysiphe test (barley)/curative; conditions: curative, 7 days after inoculation
Description: (§1) Solvent: 25 parts by weight of N,N-dimethylacetamide
(§2) Emulsifier: 0.6 part by weight of alkylaryl polyglycol ether
(§3) To produce a suitable preparation of active compound, 1 part by weight of active compound or active compound combination is mixed with the stated amounts of solvent and emulsifier, and the concentrate is diluted with water to the desired concentration.
To test for curative activity, young plants are dusted with spores of Erysiphe graminis f.sp. hordei. 48 hours after the inoculation, the plants are sprayed with the preparation of active compound at the stated application rate.
(§4) The plants are placed in a greenhouse at a temperature of about 20° C. and a relative atmospheric humidity of about 80%, in order to promote the development of mildew pustules.
(§5) Evaluation is carried out 7 days after the inoculation. 0% means an efficacy which corresponds to that of the control, whereas an efficacy of 100% means that no infection is observed.

Botrytis cinerea = experiment: Botrytis test (beans)/protective; conditions: 48 h, application rate 50 g/ha, protective, two days after inoculation, read-out: % efficacy
Description: To test for protective activity, young plants are sprayed with the commercial active compound preparation at the stated application rate. After the spray coating has dried on, 2 small pieces of agar covered with Botrytis cinerea are placed on each leaf. The inoculated plants are placed in a darkened chamber at about 20° C. and 100% relative atmospheric humidity.
Two days after the inoculation, the size of the infected spots on the leaves is evaluated. 0% means an efficacy corresponding to that of the control, and an efficacy of 100% means that no infection is observed.

Puccinia recondita [2] = experiment: Puccinia test (wheat)/protective; conditions: Puccinia recondita, 240 h, application rate 6.25 g/ha, protective, 10 days after inoculation, read-out: Efficacy in %
Description: as §1, §2, §3
(§6) To test for protective activity, young plants are sprayed with the preparation of active compound at the stated application rate. After the spray coating has dried on, the plants are sprayed with a conidia suspension of Puccinia recondita. The plants remain in an incubation cabin at 20° C. and 100% relative atmospheric humidity for 48 hours.
The plants are then placed in a greenhouse at a temperature of about 20° C. and a relative atmospheric humidity of 80%, in order to promote the development of rust pustules.
(§7) Evaluation is carried out 10 days after the inoculation. 0% means an efficacy which corresponds to that of the control, whereas an efficacy of 100% means that no infection is observed.

Leptosphaeria nodorum [3] = experiment: Leptosphaeria nodorum test (wheat)/curative; conditions: curative, 10 days after inoculation
Description: as §1, §2, §3
(§8) To test for curative activity, young plants are sprayed with a conidia suspension of Leptosphaeria nodorum. The plants remain in an incubation cabin at 20° C. and 100% relative atmospheric humidity for 48 hours and are then sprayed with the preparation of active compound at the stated application rate.
The plants are placed in a greenhouse at a temperature of about 15° C. and a relative atmospheric humidity of about 80%.
as §7

[4] = test system: Erysiphe graminis f.sp. tritici; experiment: Erysiphe test (wheat)/curative; conditions: curative, 7 days after inoculation
Description: as §1, §2, §3
To test for curative activity, young plants are dusted with spores of Erysiphe graminis f.sp. tritici. 48 hours after the inoculation, the plants are sprayed with the preparation of active compound at the stated application rate.
as §4, §5

Leptosphaeria nodorum [5] = experiment: Leptosphaeria nodorum test (wheat)/protective; conditions: Parastagonospora nodorum, 240 h, application rate 6.25 g/ha, protective, 10 days after inoculation, read-out: Efficacy in %
Description: as §1, §2, §3
as §6, with “spore” for “conidia”, “Leptosphaeria nodorum.” for “Puccinia recondita.”, “20EC” for “20° C.”
The plants are placed in a greenhouse at a temperature of about 15° C. and a relative atmospheric humidity of 80%.
as §7

Sphaerotheca fuliginea = experiment: Sphaerotheca test (cucumber)/protective; conditions: Podosphaera fuliginea, 240 h, application rate 2.5 g/ha, protective, 10 days after inoculation, read-out: % efficacy
Description: To test for protective activity, young plants are sprayed with the commercial active compound preparation at the stated application rate. After the spray coating has dried on, the plants are inoculated with an aqueous spore suspension of Sphaerotheca fuliginea. The plants then remain in a greenhouse at about 23° C. and about 70% relative atmospheric humidity.
Evaluation is carried out 10 days after the inoculation. 0% means an efficacy corresponding to that of the control, and an efficacy of 100% means that no infection is observed.

Phytophthora infestans = experiment: whole plant or invertebrate; conditions: Phytophthora infestans, in Solanum lycopersicum, 72 h, read-out: % efficacy
Rhizoctonia solani = Rhizoctonia solani test (cotton)/seed treatment; conditions: application rate 75 mg/kg of seed, dry seed dressing, after 8 days
Description: The active compounds are applied as dry seed dressing. This is prepared by extending the respective active compound with ground mineral to give a finely pulverulent mixture which ensures uniform distribution on the seed surface.
To dress the seed, the infected seed together with the seed dressing is shaken for 3 minutes in a sealed glass flask.
2×50 corns of seed are sown at a depth of 2 cm into standard soil which is infected with Rhizoctonia solani, and the seeds are cultivated in a greenhouse at a temperature of about 22° C. in seed trays which receive a light regimen of 15 hours per day.
Evaluation is carried out after 8 days. 0% means an efficacy which corresponds to that of the untreated control, while an efficacy of 100% means that no disease is observed.

Puccinia recondita [6] = experiment: Puccinia test (wheat)/curative; conditions: application rate 6.25 g/ha, curative, 10 days after inoculation
Description: as §1, §2, §3
as §8, with “Puccinia recondita.” for “Leptosphaeria nodorum.”, “hours. The plants” for “hours and”, “subsequently” for “then”
The plants are placed in a greenhouse at a temperature of about 20° C. and a relative atmospheric humidity of about 80%, in order to promote the development of rust pustules.
as §7

Fusarium nivale = Fusarium nivale test (triticale)/seed treatment; conditions: dry seed dressing, about 3 weeks after sowing
Description: About 3 weeks after sowing, the plants are evaluated for symptoms of snow mould.

[7] = test system: Erysiphe graminis fsp. tritici; experiment: Erysiphe test (wheat)/protective; conditions: protective, 7 days after inoculation
Description: as §1, §2, §3
To test for protective activity, young plants are sprayed with the preparation of active compound at the stated application rate.
After the spray coating has dried on, the plants are dusted with spores of Erysiphe graminis fsp. tritici.
as §4, §5

Pyrenophora teres = Pyrenophora teres test (barley)/curative; conditions: application rate 6.25 g/ha, curative, 7 days after inoculation
Description: as §1, §2, §3
as §8, with “Pyrenophora teres.” for “Leptosphaeria nodorum.”, “hours. The plants” for “hours and”, “subsequently” for “then”
The plants are placed in a greenhouse at a temperature of about 20° C. and a relative atmospheric humidity of about 80%.
as §5

CON=C(C1=NOCCO1)c1ccccc1Oc1ncnc(Oc2ccccc2Cl)c1F [(I)]
Efficacy in % ([1]; application rate 6.25 g/ha): 0% | Efficacy in % ([1]; application rate 12.5 g/ha): 33% | Efficacy in % ([1]; application rate 25 g/ha): 75% | Emax at 50 g/ha (Botrytis cinerea): 15% | pest or weed control at 6.25 g/ha (Puccinia recondita [2]): 81% | Efficacy in % (Leptosphaeria nodorum [3]; application rate 6.25 g/ha): 62% | Efficacy in % (Leptosphaeria nodorum [3]; application rate 12.5 g/ha): 62% | Efficacy in % ([4]; application rate 6.25 g/ha): 0% | Efficacy in % ([4]; application rate 25 g/ha): 33% | pest or weed control at 6.25 g/ha (Leptosphaeria nodorum [5]): 25% | Emax at 2.5 g/ha (Sphaerotheca fuliginea): 22% | Emax at 0.5 g/ha (Phytophthora infestans): 9% | Emax at 1 g/ha (Phytophthora infestans): 20% | Emax at 5 g/ha (Phytophthora infestans): 45% | Efficacy in % (Rhizoctonia solani): 16% | Efficacy in % (Puccinia recondita [6]): 67% | Efficacy in % (Fusarium nivale; application rate 25 mg/kg of seed): 89% | Efficacy in % (Fusarium nivale; application rate 75 mg/kg of seed): 93% | Efficacy in % ([7]; application rate 6.25 g/ha): 0% | Efficacy in % ([7]; application rate 12.5 g/ha): 29% | Efficacy in % ([7]; application rate 25 g/ha): 79% | Efficacy in % (Pyrenophora teres): 0%
